Test results published in patent publication US20070098735A1, “Methods for the Elimination of Pathogens and Other Particulate Agents” (priority 2005, published 2007).

Experiments:
[1] = system: CD4+ T cells purified from spleens of DO 11.10 mice; test: Proliferation of CD4+ T cells after MHC-II presentation of OVA-coated yeast by macrophages (FACS); assay type: cell-based; settings: macrophages treated with HSP70 100 μg/ml and OVA-coated yeast
Description: (§1) Proliferation of CD4+ T cells and INF-γ (interferon gamma) release. Unlabeled S. cerevisiae (80 μg) was incubated with excess chicken ovary albumin (OVA) at 37° C. for 1 hour and washed repeatedly to eliminate free OVA protein. S. cerevisiae-OVA complexes (OVA-coated yeast) were administered to macrophages treated with or without HSP70. Macrophages were then washed and irradiated at 12,000 rads and assessed for viability by trypan blue exclusion. Subsequently, they were co-cultured with CD4+ T lymphocytes that were purified from spleens of DO 11.10 mice and labeled with carboxyfluoroscein succinimidyl ester (CSFE). […] Following the 48-hour incubation, proliferation of CD4+ cells was determined with FACS and IFN-γ release in the supernatant was tested by enzyme-linked immunosorbent assay (ELISA; Pierce, Ill.).
(§2) Alexafluor labeled S. cerevisiae were coated with whole ovalbumin (OVA) protein 1 mg/ml by co-incubation at 37° C. for 20 minutes and washed until free OVA protein was removed (washes were tested by gel electrophoresis using SDS-PAGE and immunoblotting). […] Resultant proliferation of the CSFE-labeled CD4+ was measured by FACS as an indirect measure of the amount of OVA protein processed and its peptide epitope presented in context of MHC-II. […]

[2] = system: CD4+ T cells purified from spleens of DO 11.10 mice (IFN-γ); test: IFN-γ release by CD4+ T cells (ELISA); assay type: cell-based; settings: compared to ova-coated yeast alone or HSP70 given alone
Description: as §1, §2

[3] = system: full thickness surgical wounds on the dorsum of BALB/cJ mice; test: Closure of full thickness surgical wounds, percent wound closure; assay type: in vivo
RAW 264.7 macrophages = test: In vitro macrophage phagocytosis of wound debris; assay type: cell-based, murine; settings: RAW264.7, labeled wound debris, 37° C.

HSP70: heat shock protein purified from murine livers, prepared as a complex with endogenous peptide
CD4+ proliferation [1]: 20% | IFN-γ production by CD4+ cells [2]: increase in their ability to produce IFN-γ | wound closure compared to controls ([3]; 5 μg/dose and 50 μg/dose, day 2): significant wound closure | wound healing at Day 11 ([3]; 30 μg/dose SC on days 0, 2, 4 and 6): completely healed | dose with the most significant difference in wound closure ([3]; doses 5, 30, 50 μg/dose tested): 30 μg/dose | increase in phagocytosed wound debris compared to controls (RAW 264.7 macrophages): 25% | cytotoxicity of HSP-treatment (trypan blue exclusion) (macrophages): not cytotoxic
